In patent publication US20260373135A1, “Methods of Treatment with Tradipitant” (Vanda Pharmaceuticals Inc., priority 2022, published 2026):

Assays:
[1] = biological target: T1, CYP3A4 (Homo sapiens, UniProt P08684); assay: Role of CYP3A4 genotype (CYP3A4*22) in metabolism/clearance of tradipitant, phase III study pharmacokinetics; assay type: in vivo
Experimental: To investigate the role of CYP3A4 genotypes in the metabolism of tradipitant, pharmacokinetics are analyzed in view of CYP3A4 genotype in a phase III study of humans dosed with tradipitant. In the investigation, all CYP3A4 alleles (as recognized by the Human Cytochrome P450 Allele Nomenclature Database) are reviewed. The analysis includes a linear model that is tested on various ratios of parent compound (tradipitant) or its metabolites, including: • Ratio A=Sum of (M2+M3+M4)/M8, and • Ratio B=(tradipitant)/(M3).
After correction for covariates, including principal components (PCs), age, sex, and body mass index (BMI), CYP3A4*22 is identified as a variant of interest, with a p-value of 1×10^−5. […] The effect of multiple alleles of interest is cumulative, as shown by the median ratios present in individuals having a CYP3A4 genotype of *22/*1, i.e. heterozygous for the *22 variant of interest (*22 het), compared with individuals having a CYP3A4 genotype of *22/*22+*3/*1 genotype, i.e., homozygous for the *22 variant of interest.
The graphs shown in FIGS. 2A-2H illustrate the plasma concentrations of tradipitant (FIG. 2A), metabolite M2 (FIG. 2B), metabolite M3 (FIG. 2C), metabolite M4 (FIG. 2D), metabolite M8 (FIG. 2E), ratio of tradipitant to M8 (FIG. 2F), ratio of all metabolites to M8 (i.e., (M2+M3+M4)/M8) (FIG. 2G), and ratio of tradipitant to M3 (FIG. 2H) in individuals in a study population. […] This reflects the reduced ability to clear tradipitant in individuals having a *22 allele.
The apparent clearance of tradipitant is plotted for individuals having a wild type (WT) genotype as compared to individuals having a heterozygous *22 (*22 het) genotype. The ratio of clearance (CL) in *22 het to WT is calculated as exp (median (HET)-median (WT)). Below these calculations, the P value is reported for a t test comparing the ETA values. […] Post hoc ETAs are the following: log (individual value for clearance/typical value for clearance), where “typical value” is essentially the median value. […]

[2] = biological target: T1, CYP3A4; assay: Co-administration of tradipitant with a CYP3A4 inhibitor; assay type: in vivo
Experimental: The method may further include administering tradipitant to the individual at a dose that is determined based upon whether or not a CYP3A4 inhibitor is co-administered with the tradipitant. In a case in which a CYP3A4 inhibitor is not being co-administered to the individual, the method includes administering tradipitant to the individual in a first amount, in a manner similar to the above-described case in which the individual has a CYP3A4 genotype associated with normal metabolism of tradipitant. However, in a case in which a CYP3A4 inhibitor is co-administered with tradipitant to the individual, then the method may include administering tradipitant to the individual in a second ament, where the second amount is smaller than the first amount, in a manner similar to the above-described case in which the individual has a CYP3A4 genotype that is associated with decreased metabolism of tradipitant relative to wildtype. In certain embodiments, the CYP3A4 inhibitor may be selected from amiodarone, aprepitant, cimetidine, ciprofloxacin, clarithromycin, diltiazem, erythromycin, fluconazole, grapefruit juice, itraconazole, ketoconazole, posaconazole, voriconazole, and verapamil. In particular embodiments, the CYP3A4 inhibitor may be considered a strong CYP3A4 inhibitor, and may be selected from: clarithromycin, itraconazole, ketoconazole, and posaconazole, or from ketoconazole and grapefruit juice.
As described above, in certain embodiments, the second, smaller amount of tradipitant may be about 60-90%, 60-85%, 60-80%, 60-75%, or 60-70% of the first amount; about 25-70%, 30-70%, 35-70%, 40-70%, 45-70%, 50-70%, 55-70%, or 60-70% of the first amount; about 35-95%, 40-90%, 50-80%, or 60-70% of the first amount; or about 66-68% of the first amount. The first amount is considered to be 100% of the amount that would be administered to an individual who is […] a CYP3A4 inhibitor with the tradipitant.
Therefore, the identification of an individual in need of treatment with tradipitant, who is or would be co-administered tradipitant and the CYP3A4 inhibitor, enables dosing with tradipitant in a manner that facilitates the desired exposure level of the patient to the parent compound and any active metabolites thereof. […]

[3] = Human metabolism of tradipitant in vitro and in vivo
Source text: Factors affecting metabolic clearance of tradipitant and its metabolites impact an individual's exposure to the parent compound, as well as any active metabolites.

[4] = co-administration with a CYP3A4 inhibitor

T1 sequence (P08684 whole entry): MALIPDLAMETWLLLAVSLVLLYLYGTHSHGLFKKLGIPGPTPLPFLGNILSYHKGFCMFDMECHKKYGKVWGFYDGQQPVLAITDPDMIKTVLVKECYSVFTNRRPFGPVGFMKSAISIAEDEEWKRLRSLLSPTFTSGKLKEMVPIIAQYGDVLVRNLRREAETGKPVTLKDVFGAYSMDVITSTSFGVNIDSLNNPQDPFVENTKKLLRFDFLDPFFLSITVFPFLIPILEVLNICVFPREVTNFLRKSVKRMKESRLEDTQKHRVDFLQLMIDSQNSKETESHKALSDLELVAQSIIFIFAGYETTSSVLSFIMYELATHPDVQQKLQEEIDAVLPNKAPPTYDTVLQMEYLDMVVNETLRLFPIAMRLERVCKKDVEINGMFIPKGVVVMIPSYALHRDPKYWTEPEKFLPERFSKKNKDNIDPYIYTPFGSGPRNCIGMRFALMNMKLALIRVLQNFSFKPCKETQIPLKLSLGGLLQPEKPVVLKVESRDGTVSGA

reduction of tradipitant clearance in *22 heterozygotes ([1]; CYP3A4*22 heterozygotes vs wild type): 34%
median plasma concentration in *22 het vs wild type ([1]; CYP3A4*22 heterozygous vs wild type (*1/*1), plasma, FIGS. 2A-2D): clearly greater median concentrations
exposure to tradipitant with CYP3A4 inhibitors ([2]; co-administration with CYP3A4 inhibitors, particularly strong): increased exposure to tradipitant
decrease in apparent clearance [2, 4]: about 26.3%
increase in AUC [2, 4]: about 36%
increase in Cmax [2, 4]: about 26%
Compound: O=C(c1ccccc1Cl)c1cccnc1-c1nnn(Cc2cc(C(F)(F)F)cc(C(F)(F)F)c2)c1-c1ccncc1 [tradipitant, {2-[1-(3,5-Bistrifluoromethylbenzyl)-5-pyridin-4-yl-1H-[1,2,3]triazol-4-yl]-pyridin-3-yl}-(2-chlorophenyl)-methanone]
median ratio of tradipitant to M8 in *22 het vs wild type ([1]; CYP3A4*22 heterozygous vs wild type, plasma, FIG. 2F): clearly greater median ratio of tradipitant to M8
human metabolic pathways [3]: ketone reduction (metabolites M2, M4), N-glucuronidation (metabolite M8), pyridine N-oxidation (metabolites M3, M4), and glucuronidation (metabolite M8)
